In patent publication US12071441B2, “10-(di(phenyl)methyl)-4-hydroxy-8,9,9A,10-tetrahydro-7H-pyrrolo[1′,2′:4,5]pyrazino[1,2-b]pyridazine-3,5-dione derivatives and related compounds as inhibitors of the orthomyxovirus replication for treating influenza” (Novartis AG, priority 2018, dated 2024) one finds EC50 data, which are given here for twelve compounds.

Common to all, as to assay: microbe, parasite or virus in culture
What all share (type): cell-based

Test [1] has as its system influenza A virus minigenome (PB2, PB1, PA, NP; luciferase reporter) in 293T cells, RNP_Hubei. To be noted: HEK-293T, 48 h.
Test [2] concerns influenza A virus minigenome (PB2, PB1, PA, NP; luciferase reporter) in 293T cells, RNP_Alaska. To be noted: HEK-293T, 48 h.
Test [3] deals with influenza A virus minigenome (PB2, PB1, PA, NP; luciferase reporter) in 293T cells, RNP_CAL. The settings on record: HEK-293T, 48 h, read-out: RNP_CAL_EC50.

For `CC(C)C(=O)Oc1c2n(ncc1=O)[C@@H]([C@H](c1ccc(F)cc1)c1cccc(F)c1F)[C@H]1CCCN1C2=O` [Example 84, (9aR,10S)-10-((R)-(2,3-difluorophenyl)(4-fluorophenyl)methyl)-3,5-dioxo-3,5,8,9,9a,10-hexahydro-7H-pyrrolo[1′,2′:4,5]pyrazino[1,2-b]pyridazin-4-yl isobutyrate], the EC50 in test [1], in test [2] and in test [3] was less than 100 nM each time.

As for `CC(C)(C)C(=O)Oc1c2n(ncc1=O)[C@@H]([C@H](c1ccccc1)c1cccc(F)c1F)[C@H]1CCCN1C2=O` [Example 62, (9aR,10S)-10-((R)-(2,3-difluorophenyl)(phenyl)methyl)-3,5-dioxo-3,5,8,9,9a,10-hexahydro-7H-pyrrolo[1′,2′:4,5]pyrazino[1,2-b]pyridazin-4-yl pivalate], the EC50 in test [1], in test [2] and in test [3] was less than 100 nM each time.

Turning to `O=C1c2c(O)c(=O)cnn2[C@@H]([C@H](c2ccccc2F)c2cccc(F)c2F)[C@H]2CCCN12` [Example 8, (9aR,10S)-10-((R)-(2,3-difluorophenyl)(2-fluorophenyl)methyl)-4-hydroxy-8,9,9a,10-tetrahydro-7H-pyrrolo[1′,2′:4,5]pyrazino[1,2-b]pyridazine-3,5-dione], the EC50 in test [1], in test [2] and in test [3] was less than 100 nM each time.

Turning to `CC(C)C(=O)OCOc1c2n(ncc1=O)[C@@H]([C@H](c1cccc(F)c1)c1cccc(F)c1F)[C@H]1CCCN1C2=O` [Example 108, (((9aR,10S)-10-((R)-(2,3-difluorophenyl)(3-fluorophenyl)methyl)-3,5-dioxo-3,5,8,9,9a,10-hexahydro-7H-pyrrolo[1′,2′:4,5]pyrazino[1,2-b]pyridazin-4-yl)oxy)methyl isobutyrate], the EC50 in test [1], in test [2] and in test [3] was less than 100 nM each time.

For the compound `CC(C)C(=O)OCOc1c2n(ncc1=O)[C@@H]([C@H](c1ccccc1)c1cccc(F)c1F)[C@H]1CCCN1C2=O` [Example 32, (((9aR,10S)-10-((R)-(2,3-difluorophenyl)(phenyl)methyl)-3,5-dioxo-3,5,8,9,9a,10-hexahydro-7H-pyrrolo[1′,2′:4,5]pyrazino[1,2-b]pyridazin-4-yl)oxy)methyl isobutyrate], the EC50 in test [1], in test [2] and in test [3] was less than 100 nM each time.

`CCOC(=O)OCOc1c2n(ncc1=O)[C@@H]([C@H](c1ccc(F)cc1)c1cccc(F)c1F)[C@H]1CCCN1C2=O` [Example 92, (((9aR,10S)-10-((R)-(2,3-difluorophenyl)(4-fluorophenyl)methyl)-3,5-dioxo-3,5,8,9,9a,10-hexahydro-7H-pyrrolo[1′,2′:4,5]pyrazino[1,2-b]pyridazin-4-yl)oxy)methyl ethyl carbonate]: the EC50 in test [1], in test [2] and in test [3] was less than 100 nM in each case.

On to `COC(=O)Oc1c2n(ncc1=O)[C@@H]([C@H](c1cccc(F)c1)c1cccc(F)c1F)[C@H]1CCCN1C2=O` [Example 115, (9aR,10S)-10-((R)-(2,3-difluorophenyl)(3-fluorophenyl)methyl)-3,5-dioxo-3,5,8,9,9a,10-hexahydro-7H-pyrrolo[1′,2′:4,5]pyrazino[1,2-b]pyridazin-4-yl methyl carbonate], for which the EC50 in test [1], in test [2] and in test [3] was less than 100 nM throughout.

With `CCOC(=O)OCOc1c2n(ncc1=O)[C@@H]([C@H](c1ccccc1)c1cccc(F)c1F)[C@H]1CCCN1C2=O` [Example 51, (((9aR,10S)-10-((R)-(2,3-difluorophenyl)(phenyl)methyl)-3,5-dioxo-3,5,8,9,9a,10-hexahydro-7H-pyrrolo[1′,2′:4,5]pyrazino[1,2-b]pyridazin-4-yl)oxy)methyl ethyl carbonate], the EC50 in test [1], in test [2] and in test [3] was less than 100 nM throughout.

Take `COc1ccccc1[C@@H](c1ccc(F)cc1)[C@H]1[C@H]2CCCN2C(=O)c2c(O)c(=O)cnn21` [Example 25, (9aR,10S)-10-((R)-(4-fluorophenyl)(2-methoxyphenyl)methyl)-4-hydroxy-8,9,9a,10-tetrahydro-7H-pyrrolo[1′,2′:4,5]pyrazino[1,2-b]pyridazine-3,5-dione]: the EC50 in test [1], in test [2] and in test [3] was 100 to 1000 nM throughout.

`O=C1c2c(O)c(=O)cnn2[C@@H](C(c2cccc(F)c2)c2cccc(F)c2)[C@H]2CC(F)(F)CN12` [Example 13, (9aR,10S)-10-(bis(3-fluorophenyl)methyl)-8,8-difluoro-4-hydroxy-8,9,9a,10-tetrahydro-7H-pyrrolo[1′,2′:4,5]pyrazino[1,2-b]pyridazine-3,5-dione]: the EC50 was 100 to 1000 nM in test [1], not below 1000 nM in test [2] and not below 1000 nM in test [3].

Consider `CN1CCN(C(=O)OCOc2c3n(ncc2=O)[C@@H]([C@H](c2ccccc2)c2cccc(F)c2F)[C@H]2CCCN2C3=O)CC1` [Example 36, (((9aR,10S)-10-((R)-(2,3-difluorophenyl)(phenyl)methyl)-3,5-dioxo-3,5,8,9,9a,10-hexahydro-7H-pyrrolo[1′,2′:4,5]pyrazino[1,2-b]pyridazin-4-yl)oxy)methyl 4-methylpiperazine-1-carboxylate], for which the EC50 in test [1], in test [2] and in test [3] was not below 1000 nM throughout.

`O=C1c2c(O)c(=O)cnn2[C@@H]([C@H](c2ccc(F)cc2)c2ccc(C(F)(F)F)cc2)[C@H]2CCCN12` [Example 21, (9aR,10S)-10-((S)-(4-fluorophenyl)(4-(trifluoromethyl)phenyl)methyl)-4-hydroxy-8,9,9a,10-tetrahydro-7H-pyrrolo[1′,2′:4,5]pyrazino[1,2-b]pyridazine-3,5-dione]: the EC50 in test [1], in test [2] and in test [3] was 100 to 1000 nM in each case.
